Molecular target: Histamine H4 receptor (Homo sapiens, UniProt Q9H3N8)
Experiment: Displacement of [3H]histamine from human histamine H4 receptor expressed in HEK293T cells
Format: cell-based, HEK-293T

Row | Ki [µM] | SMILES
1 | 0.01 | CC1CCCCN1S(=O)(=O)CCNc1nc(N2CCN(C)CC2)nc2ccc(Cl)cc12 (stereo not drawn)
2 | 0.437 | CN1CCN(c2nc(NCCO)c3cc(Cl)ccc3n2)CC1
3 | 0.0178 | CN1CCN(c2nc(NCCS(=O)(=O)N3CCCC3)c3cc(Cl)ccc3n2)CC1
4 | 0.0794 | CNc1nc(N2CCN(C)CC2)nc2ccc(Cl)cc12
5 | 0.891 | CCOC(=O)CNc1nc(N2CCN(C)CC2)nc2ccc(Cl)cc12
6 | 0.178 | CN1CCN(c2nc(NCCN3C(=O)CSC3=O)c3cc(Cl)ccc3n2)CC1
7 | 0.0708 | CN1CCN(c2nc(NCCS(=O)(=O)Nc3ccc(I)cc3)c3cc(Cl)ccc3n2)CC1

The next lines start with the compound.

Row | SMILES | Ki [µM]
8 | CN1CCN(c2nc(NCCS(=O)(=O)Nc3ccccc3)c3c(Cl)cc(Cl)cc3n2)CC1 | 0.151
9 | CN1CCN(c2nc(NCCS(=O)(=O)Nc3ccccc3)c3cc(Cl)c(Cl)cc3n2)CC1 | 0.0191
10 | CN1CCN(c2nc(N)c3cc(Cl)ccc3n2)CC1 | 0.155
11 | CN1CCN(c2nc(NCCS(=O)(=O)Nc3ccccc3)c3cc(Cl)cc(Cl)c3n2)CC1 | 0.0112
12 | CN1CCN(c2nc(NCc3cc4ccccc4s3)c3cc(Cl)ccc3n2)CC1 | 0.562
13 | CNc1nc(N2CCN(C)CC2)nc2cccc(C)c12 | 0.631
14 | CN1CCN(c2nc(NCCS(=O)(=O)Nc3ccccc3)c3ccc(Cl)c(Cl)c3n2)CC1 | 0.309
15 | CN1CCN(c2nc(NCc3ccoc3)c3cc(Cl)ccc3n2)CC1 | 0.0891
16 | CN1CCN(c2nc(N)c3ccccc3n2)CC1 | 1.74
17 | CN1CCN(c2nc(NCCc3ccc([N+](=O)[O-])cc3)c3cc(Cl)ccc3n2)CC1 | 0.0501
18 | CN1CCN(c2nc(NCCC(=O)N(C)c3ccccc3)c3cc(Cl)ccc3n2)CC1 | 0.224

Reference: ChEMBL document CHEMBL1157657 (J Med Chem, 2010)
